Data from the NIST ThermoML archive (doi:10.1021/acs.jced.8b01146).
Several values for one entry are separate records, joined by “and”; a condition that tells them apart may be missing. Identical values can stand only once.

What was measured:
[1] = xn = mol fraction of the nth substance listed; details: 100 kPa, Liquid, Vibrating tube method
[2] = excess molar enthalpy (molar enthalpy of mixing); xn = mol fraction of the nth substance listed; details: 100 kPa, Liquid, Calvet calorimetry

O=C1CCCO1 [γ-butyrolactone] + O
Details | excess molar enthalpy, [2] | mass density, [1]
288.15 K, x1 = 0.00118 | -0.000825 kcal/mol | 999.977 kg/m3
288.15 K, x1 = 0.001181 | -0.000827 kcal/mol | 999.978 kg/m3
288.15 K, x1 = 0.002358 | -0.00163 kcal/mol | 1000.85 kg/m3
288.15 K, x1 = 0.003533 | -0.0024 kcal/mol | 1001.72 kg/m3
288.15 K, x1 = 0.003534 | -0.0024 kcal/mol | 1001.72 kg/m3
288.15 K, x1 = 0.004705 | -0.00315 kcal/mol | 1002.58 kg/m3
288.15 K, x1 = 0.004706 | -0.00315 kcal/mol | 1002.59 kg/m3
288.15 K, x1 = 0.005874 | -0.00388 kcal/mol | 1003.43 kg/m3
288.15 K, x1 = 0.005876 | -0.00387 kcal/mol | 1003.43 kg/m3
288.15 K, x1 = 0.007042 | -0.00458 kcal/mol | 1004.27 kg/m3
288.15 K, x1 = 0.007044 | -0.00458 kcal/mol | 1004.28 kg/m3
298.15 K, x1 = 0.001179 | -0.000598 kcal/mol | 997.864 kg/m3
298.15 K, x1 = 0.002356 | -0.00117 kcal/mol | 998.672 kg/m3
298.15 K, x1 = 0.00353 | -0.00171 kcal/mol | 999.474 kg/m3
298.15 K, x1 = 0.004701 | -0.00224 kcal/mol | 1000.27 kg/m3
298.15 K, x1 = 0.005869 | -0.00275 kcal/mol | 1001.06 kg/m3
298.15 K, x1 = 0.007036 | -0.00324 kcal/mol | 1001.84 kg/m3
308.15 K, x1 = 0.001179 | -0.000363 kcal/mol and -0.000361 kcal/mol | 994.794 kg/m3 and 994.797 kg/m3
308.15 K, x1 = 0.002356 | -0.0007 kcal/mol and -0.000698 kcal/mol | 995.554 kg/m3 and 995.552 kg/m3
308.15 K, x1 = 0.00353 | -0.00101 kcal/mol | 996.301 kg/m3
308.15 K, x1 = 0.003531 | -0.00101 kcal/mol | 996.302 kg/m3
308.15 K, x1 = 0.004702 | -0.00131 kcal/mol | 997.038 kg/m3
308.15 K, x1 = 0.004703 | -0.0013 kcal/mol | 997.039 kg/m3
308.15 K, x1 = 0.00587 | -0.00158 kcal/mol | 997.774 kg/m3
308.15 K, x1 = 0.005871 | -0.00158 kcal/mol | 997.78 kg/m3
308.15 K, x1 = 0.007038 | -0.00184 kcal/mol | 998.505 kg/m3 and 998.496 kg/m3
318.15 K, x1 = 0.001181 | -0.000116 kcal/mol and -0.000115 kcal/mol | 990.926 kg/m3 and 990.925 kg/m3
318.15 K, x1 = 0.002359 | -0.000209 kcal/mol and -0.000208 kcal/mol | 991.631 kg/m3 and 991.634 kg/m3
318.15 K, x1 = 0.003534 | -0.000283 kcal/mol and -0.000286 kcal/mol | 992.336 kg/m3 and 992.333 kg/m3
318.15 K, x1 = 0.004706 | -0.000346 kcal/mol | 993.03 kg/m3
318.15 K, x1 = 0.004707 | -0.000343 kcal/mol | 993.03 kg/m3
318.15 K, x1 = 0.005875 | -0.00039 kcal/mol | 993.721 kg/m3
318.15 K, x1 = 0.005876 | -0.000386 kcal/mol | 993.713 kg/m3
318.15 K, x1 = 0.007043 | -0.000418 kcal/mol | 994.396 kg/m3
318.15 K, x1 = 0.007044 | -0.000413 kcal/mol | 994.396 kg/m3

CC1CCC(=O)O1 (stereo not drawn) [γ-valerolactone] + O
Details | excess molar enthalpy, [2] | mass density, [1]
288.15 K, x1 = 0.000948 | -0.00117 kcal/mol | 999.61 kg/m3
288.15 K, x1 = 0.001895 | -0.0023 kcal/mol | 1000.12 kg/m3
288.15 K, x1 = 0.00284 | -0.00341 kcal/mol | 1000.62 kg/m3
288.15 K, x1 = 0.003783 | -0.00447 kcal/mol | 1001.12 kg/m3
288.15 K, x1 = 0.004724 | -0.00551 kcal/mol | 1001.62 kg/m3
288.15 K, x1 = 0.005663 | -0.00652 kcal/mol | 1002.11 kg/m3
298.15 K, x1 = 0.000947 | -0.000872 kcal/mol | 997.5 kg/m3
298.15 K, x1 = 0.001893 | -0.00171 kcal/mol | 997.952 kg/m3 and 997.948 kg/m3
298.15 K, x1 = 0.002836 | -0.00252 kcal/mol | 998.397 kg/m3
298.15 K, x1 = 0.002837 | -0.00253 kcal/mol | 998.399 kg/m3
298.15 K, x1 = 0.003778 | -0.00331 kcal/mol | 998.844 kg/m3
298.15 K, x1 = 0.003779 | -0.00331 kcal/mol | 998.843 kg/m3
298.15 K, x1 = 0.004718 | -0.00407 kcal/mol | 999.282 kg/m3
298.15 K, x1 = 0.004719 | -0.00406 kcal/mol | 999.28 kg/m3
298.15 K, x1 = 0.005658 | -0.00479 kcal/mol and -0.00481 kcal/mol | 999.717 kg/m3 and 999.723 kg/m3
308.15 K, x1 = 0.000947 | -0.000574 kcal/mol | 994.435 kg/m3
308.15 K, x1 = 0.001892 | -0.00113 kcal/mol | 994.839 kg/m3
308.15 K, x1 = 0.001893 | -0.00113 kcal/mol | 994.839 kg/m3
308.15 K, x1 = 0.002835 | -0.00165 kcal/mol | 995.239 kg/m3
308.15 K, x1 = 0.002836 | -0.00165 kcal/mol | 995.239 kg/m3
308.15 K, x1 = 0.003777 | -0.00215 kcal/mol | 995.637 kg/m3
308.15 K, x1 = 0.003778 | -0.00215 kcal/mol | 995.634 kg/m3
308.15 K, x1 = 0.004716 | -0.00262 kcal/mol | 996.023 kg/m3
308.15 K, x1 = 0.004718 | -0.00261 kcal/mol | 996.023 kg/m3
308.15 K, x1 = 0.005656 | -0.00306 kcal/mol and -0.00308 kcal/mol | 996.412 kg/m3 and 996.415 kg/m3
318.15 K, x1 = 0.000946 | -0.000275 kcal/mol | 990.573 kg/m3
318.15 K, x1 = 0.000947 | -0.000275 kcal/mol | 990.572 kg/m3
318.15 K, x1 = 0.001891 | -0.000526 kcal/mol | 990.933 kg/m3
318.15 K, x1 = 0.001892 | -0.000526 kcal/mol | 990.933 kg/m3
318.15 K, x1 = 0.002835 | -0.000758 kcal/mol | 991.289 kg/m3
318.15 K, x1 = 0.003776 | -0.00097 kcal/mol | 991.639 kg/m3
318.15 K, x1 = 0.003777 | -0.000966 kcal/mol | 991.641 kg/m3
318.15 K, x1 = 0.004716 | -0.00115 kcal/mol and -0.00114 kcal/mol | 991.985 kg/m3 and 991.983 kg/m3
318.15 K, x1 = 0.005655 | -0.00131 kcal/mol and -0.00132 kcal/mol | 992.329 kg/m3 and 992.332 kg/m3
